Eight compounds from PubChem BioAssay (NCI) can be followed below.

Holding throughout (assay): growth of human tumour cells (NCI), 48 h
The test system of experiment [1] is HCT-15 colon.
Experiment [2] relates to IGROV1 ovarian.
For experiment [3], the system named is KM12 colon.
Experiment [4] deals with NCI-H522 lung.
For experiment [5], the system named is OVCAR-5 ovarian.
In experiment [6] the test system is SK-MEL-2 melanoma.
The test system of experiment [7] is SN12C renal.
Experiment [8] deals with SNB-75 CNS.
Experiment [9] relates to UO-31 renal.
For experiment [10], the system named is HOP-92 NSCLC.

The structures appear in SMILES notation.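 Step 1: Grow cells in 96-well plates. Step 2: Expose to compound for 48 hours at 5 concentrations. Step 3: Interpolate endpoints linearly; if unreached, use highest concentration. GI50 = concentration required for 50% inhibition of growth. TGI: concentration producing complete growth inhibition.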

Take `CCN(CC)CCNc1ccc(N=Nc2cnc3ccccc3c2)c2ccccc12`: the GI50 in [1] was 1.47 µM; in experiment [2] it was 1.67 µM; in experiment [3], 1.56 µM; in experiment [4] it was 1.91 µM; in experiment [5], 1.64 µM; in experiment [6], 2.34 µM. The GI50 in experiment [7] was 1.64 µM; in [8], 1.36 µM; in experiment [9] it was 1.51 µM. The TGI is 2.93 µM in experiment [1]; 3.77 µM in experiment [2]; 2.89 µM in [3]; 3.54 µM in [4]; 3.24 µM in [5]; 4.3 µM in [6]. The TGI is 3.16 µM in [7], 2.89 µM in experiment [8] and 3.05 µM in [9].
As to `COc1ccc(C(=O)/C=C/c2c(C(F)(F)F)nc3ccccn23)cc1OC`, the GI50 in experiment [1] is 1.57 µM; in [2] it was 0.508 µM; in experiment [3], 0.646 µM; in experiment [4] it was 0.133 µM; in experiment [6] it was 1.72 µM; in [7] it was 3.53 µM. Also, the values for the GI50 in experiment [8] and in experiment [9] were 2.01 µM and 1.62 µM, respectively. The TGI in experiment [1] is > 100 µM; in experiment [2] it was 3.41 µM; in [3], 7.42 µM; in experiment [4], 0.929 µM; in experiment [6], 5.09 µM; in experiment [7], > 100 µM. For the same compound, the TGI in [8] is 6.77 µM; in experiment [9] it was 29.5 µM.
For `COc1cc2c(cc1OC)-c1c(c3ccc([N+](=O)[O-])cc3c(=O)n1CCCN=[N+]=[N-])C2=O`, the GI50 in experiment [1] was > 100 µM; in experiment [2], 7.5 µM; in [3] it was > 100 µM; in experiment [4], 11.7 µM; in experiment [5] it was > 100 µM; in experiment [6] it was > 100 µM. For the same compound, the GI50 in experiment [7] was 46.7 µM; in [8] it was 86.2 µM; in experiment [9], 42.4 µM. Further, the TGI in experiment [1], in [2], in experiment [3], in experiment [4], in experiment [5] and in [6] was > 100 µM throughout. For the same compound, the TGI in experiment [7], in [8] and in experiment [9] was > 100 µM throughout.
Regarding `Cc1cc(=O)n2c(cc3cccccc32)n1`, the TGI in [1], in experiment [2], in experiment [3], in experiment [4], in experiment [5] and in [6] was > 100 µM in each case. Further, the TGI in experiment [7], in experiment [8] and in experiment [9] was > 100 µM throughout.
For the compound `C[C@H]1[C@H](C)CC[C@]2(C(=O)O)CCC3(COC(=O)/C=C/c4ccc(O)cc4)C(=CCC4[C@@]5(C)CC[C@H](O)C(C)(C)C5CC[C@]43C)[C@H]12` (stereo partly drawn), the TGI came out at 15.7 µM in experiment [1]; 15.4 µM in experiment [2]; 16.3 µM in [3]; 17.1 µM in experiment [4]; 28.6 µM in [5]; 43.2 µM in [6]. The results for the TGI in experiment [7], in experiment [8] and in experiment [9] were 20.8 µM, 23.8 µM and 15.6 µM, respectively.
Consider `CC(Oc1ccc2c(=O)cc(-c3ccccc3)oc2c1)C(=O)O` (stereo not drawn), for which the TGI in experiment [10], in experiment [2], in experiment [3], in experiment [4], in experiment [7] and in experiment [8] was > 100 µM in each case. In experiment [9], the TGI is > 100 µM.
As for `Cc1cc(C(=O)CC(Cl)=C(Cl)Cl)c(Cl)cc1Cl`, the GI50 in experiment [1] was 20 µM; in experiment [2] it was 22 µM; in experiment [3] it was 18.2 µM; in [4], 22.6 µM; in experiment [5], 29.8 µM; in experiment [6], 51.2 µM. In addition, the GI50 in experiment [7] is 19.5 µM; in experiment [8], 34.8 µM; in experiment [9], 22.5 µM. In addition, the TGI in experiment [1] is 41.2 µM; in experiment [2], 82.9 µM; in experiment [3], 42.1 µM; in experiment [4] it was 69.4 µM; in experiment [5] it was 79.8 µM; in experiment [6] it was > 100 µM. Besides, the TGI is 44.7 µM in experiment [7], > 100 µM in experiment [8] and 55.4 µM in experiment [9].
Turning to `Cc1ccc2c(c1)C(=O)/C(=C/c1cccc(OCC(=O)c3ccc(Cl)cc3)c1)CS2`, the GI50 in [1] is 2.74 µM; in [2] it was 5.65 µM; in experiment [3] it was 2.64 µM; in [4] it was 3.94 µM; in experiment [5], 15.7 µM; in experiment [6], 8.03 µM. The GI50 in experiment [7] was 14.6 µM; in [8], 6.39 µM; in experiment [9], 2.93 µM. Further, the TGI was determined as 15.3 µM in experiment [1]; 20.4 µM in experiment [2]; 8.02 µM in [3]; 18.2 µM in experiment [4]; 30 µM in [5]; 22.3 µM in [6]. For the same compound, the values for the TGI in [7], in [8] and in experiment [9] were 62.7 µM, 44.9 µM and 18.3 µM, respectively.
